PubChem BioAssay (NCI)
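Where inhibition never reached the appropriate level, the endpoint shown equals the highest concentration tested. Otherwise, values were interpolated linearly from a five-concentration, 48-hour dose response in 96-well plates. Abbreviation: GI50, concentration required for 50% inhibition of growth. The concentration for full growth arrest is given as TGI.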

Tests used:
Assay in all cases: DTP human tumour cell line panel, 48 h
MCF7 breast = system: MCF7 breast
OVCAR-4 ovarian = system: OVCAR-4 ovarian
M14 melanoma = system: M14 melanoma
HCT-15 colon = system: HCT-15 colon
SK-OV-3 ovarian = system: SK-OV-3 ovarian
EKVX NSCLC = system: EKVX NSCLC
HS 578T breast = system: HS 578T breast
SF-295 CNS = system: SF-295 CNS
NCI-H522 lung = system: NCI-H522 lung
KM12 colon = system: KM12 colon

Row | SMILES | TGI (MCF7 breast) [µM] | TGI (OVCAR-4 ovarian) [µM] | TGI (M14 melanoma) [µM] | TGI (HCT-15 colon) [µM] | TGI (SK-OV-3 ovarian) [µM] | TGI (EKVX NSCLC) [µM] | TGI (HS 578T breast) [µM] | TGI (SF-295 CNS) [µM] | TGI (NCI-H522 lung) [µM] | TGI (KM12 colon) [µM] | GI50 (MCF7 breast) [µM] | GI50 (OVCAR-4 ovarian) [µM] | GI50 (M14 melanoma) [µM] | GI50 (HCT-15 colon) [µM] | GI50 (SK-OV-3 ovarian) [µM] | GI50 (EKVX NSCLC) [µM] | GI50 (HS 578T breast) [µM] | GI50 (SF-295 CNS) [µM] | GI50 (NCI-H522 lung) [µM] | GI50 (KM12 colon) [µM]
1 | C/C(=C\c1ccc(Cl)cc1)C(C)(C)C(=O)O | > 100 | > 100 | > 100 | > 100 | > 100 | > 100 | > 100 | > 100 | > 100 | > 100 |  |  |  |  |  |  |  |  |  | 
2 | COc1ccc(-c2ccc3c(NC(=O)C4CC4)n[nH]c3n2)cc1 | > 25 | > 25 | > 25 | > 25 | > 25 | > 25 | > 25 | > 25 | > 25 | > 25 | > 25 | > 25 | > 25 | > 25 | 19.6 | > 25 | 23.6 | > 25 | > 22.9 | > 25
3 | COc1ccc(-c2ccc(/C=C/C(=O)NO)cc2)cc1 | 19.2 | 4.44 | 7.64 | 58.7 | 3.21 | 12.9 | 56.3 | 2.01 | 16.4 | > 100 | 0.639 | 0.362 | 1.45 | 0.468 | 1.18 | 2.23 | 3.15 | 0.23 | 0.801 | 1.11
4 | COc1cc(-c2cc(-c3ccc(N(C)C)cc3)nc(N3CCOCC3)c2C#N)cc(OC)c1OC | > 55.2 | > 100 | 1.47 | 44.1 | > 100 | > 100 | > 100 | 1.11 |  | > 100 | 1.24 | 21.4 | 0.322 | 0.68 | 1.62 | 0.988 | 22.1 | 0.381 | 0.286 | 1.34
5 | O=C(NCc1cccnc1)/C(=C\c1ccc(Br)cc1)S(=O)(=O)c1ccccc1 | 2.11 | 1.8 | 2.86 | 2.27 | 5.97 | 2.61 | 5.31 | 3.24 | 1.58 | 3.47 | 0.409 | 0.416 | 1.04 | 0.536 | 2.7 | 1.3 | 1.25 | 1.72 | 0.38 | 1.53
6 | COc1ccc(C(=O)c2cc(OC)c(OC)c(OC)c2)cc1OC(C)=O | > 100 | > 100 | > 100 | > 100 | > 100 | > 100 | > 100 | > 100 | > 100 | > 100 | 0.0346 | 0.0822 | < 0.0143 | < 0.0136 | 0.0817 | 2.24 | 0.0235 | 0.0796 | 0.017 | < 0.0133
7 | O=C(/C=C/c1ccc(C(F)(F)F)cc1)c1ccc(Nc2nc(NCCO)nc(NCCO)n2)cc1 | 5.16 | 20.8 | 17.1 | 11.3 | 15.1 | 16.8 | 54 | 13 | 6.66 | 4.17 | 1.66 | 4.29 | 3.96 | 3.07 | 4 | 3.49 | 5.44 | 3.2 | 2.15 | 2.02
8 | COc1ccc(N2CCN(C(=O)c3ccccc3Nc3ccnc(C(F)(F)F)c3)CC2)cc1 | > 100 | > 100 | > 100 | > 100 | > 100 | > 100 | > 100 | > 100 | > 100 | > 100 | 36.4 | 22.4 | 87.3 | > 100 | > 100 | 39.3 | 60.6 | 40.5 | 18.1 | 76.9
9 | S=c1nc(-c2nc(=S)[nH]c3c2CCCCCCCCCC3)c2c([nH]1)CCCCCCCCCC2 | > 100 | > 100 | > 100 | > 100 | > 100 | > 100 | > 100 | > 100 | > 100 | > 100 |  |  |  |  |  |  |  |  |  | 
10 | S=c1nc[nH]c2c1ncn2Cc1ccco1 | > 100 | > 100 | > 100 | > 100 | > 100 | > 100 | > 100 | > 100 | > 100 | > 100 |  |  |  |  |  |  |  |  |  | 
11 | Nc1ncnc2c1c(C(F)(F)F)cn2[C@@H]1O[C@H](CO)[C@@H](O)[C@H]1O | > 86.3 | > 100 | 1.91 | > 100 | > 100 | > 27.3 | 7.54 | > 23.3 | 3.15 |  | 0.0405 | 1.03 | 0.0419 | 0.197 | 2.49 | 1.23 | 0.813 | 0.442 | 0.319 | 0.134
12 | O=C(c1ccccc1Nc1ccnc(C(F)(F)F)c1)N1CCN(c2cccc(Cl)c2)CC1 | 80 | > 100 | > 74.3 | > 100 | 92.5 | > 87.5 | 89.2 | 65.6 | 63.5 | > 80.2 | 18 | 12.7 | 21.4 | 24.1 | 28.3 | 15.4 | 17.3 | 16.5 | 15.4 | 25.7
13 | C=C(C=O)C1CC(=O)C(C(=O)OC)[C@@H]2O[C@@](C)(CC2=O)C[C@@H]2OC(=O)[C@]3(O[C@@H]23)[C@@H](C(=O)OC)C1 (stereo partly drawn) | 28 | 92.4 | 30.4 | 38.5 | > 100 | 95.1 | > 100 | 28.6 | 41.5 | 45 | 11.1 | 30 | 14.8 | 16.2 | 60.6 | 27.2 | 32.8 | 11.2 | 7.03 | 19.2
